Assay results reported in patent US20080063636A1, “Variant Amyloid Protein” (priority 2004, published 2008).

System: human cultured cell HEK cells
Experiment: Quantification of amyloid protein secreted by HEK cells expressing APP cDNA
Format: cell-based
Design: Aβ42: unit not given here
Details: secreted by HEK cells expressing the APP cDNA, 2 days, culture supernatant
From the text: Since the variant APP gene cDNA obtained in Example 1 had the variant inside the amyloid protein, a β secretase or γ secretase cleavage site was examined. Then, an expression vector of the variant APP gene cDNA was introduced into human cultured cell HEK cells known to express APP as well as to produce and secrete amyloid protein. The expression was left to occur for 2 days to obtain a culture supernatant, and an immunoprecipitated fraction obtained by using an anti-amyloid protein antibody was subjected to a mass analysis with the use of AXIMA-CFR manufactured by Shimadzu Corporation.
Note that a vacant expression vector dissolved into a normal saline was used as the control in Table 1. Also, Aβ42 represents Aβ1-42 and Aβ1-43 or Aβ1-42 (ΔE) and Aβ1-43 (ΔE), and Aβ40 represents Aβ1-40 or Aβ1-40 (ΔE).

Substance “Wildtype APP: wildtype amyloid precursor protein expressed in human cultured HEK cells” has an Aβ40 (Aβ40 = Aβ1-40 or Aβ1-40 (ΔE)) of 200 pg/mL and an Aβ42 (Aβ42 = Aβ1-42 and Aβ1-43 or their ΔE forms) of 26.
